Columns and labels:
Type in all cases: cell-based
[1] = molecular target: T1, human OCT2 (Homo sapiens, UniProt O15244); test: competition of [3H]-histamine uptake in transfected HEK293T cells; conditions: 2.5 uM [3H]-histamine, 30 min, 37 C, pH 7.4; competitor concentration for OCT2 not given
T1 construct: gene SLC22A2
T1 sequence (O15244 1-555): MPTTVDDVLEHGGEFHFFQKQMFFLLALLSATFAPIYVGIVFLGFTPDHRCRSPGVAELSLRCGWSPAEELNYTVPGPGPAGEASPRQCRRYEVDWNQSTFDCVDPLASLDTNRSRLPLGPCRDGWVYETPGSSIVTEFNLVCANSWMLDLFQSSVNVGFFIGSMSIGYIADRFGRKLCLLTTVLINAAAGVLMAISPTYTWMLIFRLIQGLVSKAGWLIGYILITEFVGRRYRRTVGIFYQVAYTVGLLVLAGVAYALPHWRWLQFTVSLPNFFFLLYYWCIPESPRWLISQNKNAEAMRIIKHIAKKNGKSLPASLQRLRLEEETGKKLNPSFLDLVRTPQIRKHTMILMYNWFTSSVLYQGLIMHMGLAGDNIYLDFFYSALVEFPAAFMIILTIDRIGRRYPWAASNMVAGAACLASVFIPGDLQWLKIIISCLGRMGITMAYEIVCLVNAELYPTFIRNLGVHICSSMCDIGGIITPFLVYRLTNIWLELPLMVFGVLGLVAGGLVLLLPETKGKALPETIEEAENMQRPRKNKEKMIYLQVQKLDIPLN

[2] = molecular target: T2, HisT (CG1358) (Drosophila melanogaster, UniProt A0A0B4JD50); test: [3H]-histamine uptake in transfected HEK293T cells; conditions: labelled compound; 2.5 uM, 30 min, 37 C, pH 7.4, ECF buffer with 120 mM NaCl
T2 sequence (A0A0B4JD50 1-482): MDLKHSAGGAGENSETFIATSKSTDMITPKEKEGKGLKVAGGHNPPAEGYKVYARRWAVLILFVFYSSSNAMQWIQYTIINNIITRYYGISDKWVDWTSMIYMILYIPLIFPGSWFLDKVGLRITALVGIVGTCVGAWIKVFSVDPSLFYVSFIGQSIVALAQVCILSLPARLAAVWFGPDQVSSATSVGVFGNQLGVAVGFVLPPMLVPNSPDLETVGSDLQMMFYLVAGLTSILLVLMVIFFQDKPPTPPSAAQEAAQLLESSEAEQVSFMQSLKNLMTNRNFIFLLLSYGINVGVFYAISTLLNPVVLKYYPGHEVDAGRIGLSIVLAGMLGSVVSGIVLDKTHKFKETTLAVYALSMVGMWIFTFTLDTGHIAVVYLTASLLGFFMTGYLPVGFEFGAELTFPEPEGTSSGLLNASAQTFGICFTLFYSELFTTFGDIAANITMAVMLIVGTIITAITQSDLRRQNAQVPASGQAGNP

[3] = molecular target: T1, human OCT2; test: [3H]-histamine uptake in transfected HEK293T cells; conditions: labelled compound; 2.5 uM, 30 min, 37 C, pH 7.4, ECF buffer with 120 mM NaCl

Row | SMILES | inhibition of [3H]-histamine uptake [1] | [3H]-histamine uptake in transfected HEK293T cells [2] | [3H]-histamine uptake in transfected HEK293T cells [3]
1 | NCCc1c[nH]c2ccc(O)cc12 [serotonin] | OCT2-mediated [^3H]-histamine uptake was completely blocked by dopamine, serotonin, and carcinine | – | –
2 | NCCc1ccc(O)c(O)c1 [dopamine] | OCT2-mediated [^3H]-histamine uptake was completely blocked by dopamine, serotonin, and carcinine | – | –
3 | NCCC(=O)NCCc1c[nH]cn1 [carcinine] | OCT2-mediated [^3H]-histamine uptake was completely blocked by dopamine, serotonin, and carcinine | – | –
4 | NCCc1c[nH]cn1 [histamine] | – | is the only transporter exhibiting histamine uptake activity in vitro | OCT2), which mediates the low-affinity transport of some monoamine neurotransmitters including histamine
